Measured values as given in ChEMBL document CHEMBL1201862, “PubChem BioAssay data set” (2004).
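Tested at 5 concentrations; 48 h exposure; 96-well plates; endpoints linearly interpolated, else capped at highest concentration. Abbreviation: GI50, concentration required for 50% inhibition of growth.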 Activity calls are given as the source filed them. Rule as the data show it: active = GI50 up to about 1.1 µM and inactive = higher.

Tests used:
Test in all cases: NCI-60 cell line screen, 48 h
786-0 = test system: 786-0
A498 = test system: A498
A549 = test system: A549
ACHN = test system: ACHN
BT-549 = test system: BT-549
CAKI-1 = test system: CAKI-1
CCRF-CEM = test system: CCRF-CEM
COLO 205 = test system: COLO 205
DU-145 = test system: DU-145
EKVX = test system: EKVX
HCC 2998 = test system: HCC 2998
HCT-116 = test system: HCT-116
HCT-15 = test system: HCT-15
HL-60 = test system: HL-60
HOP-62 = test system: HOP-62
HOP-92 = test system: HOP-92
HT-29 = test system: HT-29
Hs-578T = test system: Hs-578T
IGROV-1 = test system: IGROV-1
K562 = test system: K562
KM12 = test system: KM12
LOX IMVI = test system: LOX IMVI
M14 = test system: M14
MCF7 = test system: MCF7
MDA-MB-231 = test system: MDA-MB-231
MDA-MB-435 = test system: MDA-MB-435
MDA-N = test system: MDA-N
MOLT-4 = test system: MOLT-4
Malme-3M = test system: Malme-3M
NCI-H226 = test system: NCI-H226
NCI-H23 = test system: NCI-H23
NCI-H460 = test system: NCI-H460
NCI-H522 = test system: NCI-H522
NCI/ADR-RES = test system: NCI/ADR-RES
OVCAR-3 = test system: OVCAR-3
OVCAR-4 = test system: OVCAR-4
OVCAR-5 = test system: OVCAR-5
OVCAR-8 = test system: OVCAR-8
PC-3 = test system: PC-3
RPMI-8226 = test system: RPMI-8226
RXF 393 = test system: RXF 393
SF-268 = test system: SF-268
SF-295 = test system: SF-295
SF-539 = test system: SF-539
SK-MEL-28 = test system: SK-MEL-28
SK-MEL-2 = test system: SK-MEL-2
SK-MEL-5 = test system: SK-MEL-5
SK-OV-3 = test system: SK-OV-3
SN12C = test system: SN12C
SNB-19 = test system: SNB-19
SNB-75 = test system: SNB-75
SR = test system: SR
SW-620 = test system: SW-620
T47D = test system: T47D
TK-10 = test system: TK-10
U-251 = test system: U-251
UACC-257 = test system: UACC-257
UACC-62 = test system: UACC-62
UO-31 = test system: UO-31

With `CC(=O)CCCCn1c(=O)c2c(nc(Br)n2C)n(C)c1=O` the GI50 (786-0) was > 100 µM (inactive), the GI50 (A498) was 95.9 µM (inactive) and the GI50 (A549) was > 100 µM (inactive). The GI50 (ACHN) was > 100 µM (inactive), the GI50 (BT-549) was > 100 µM (inactive) and the GI50 (CAKI-1) was 1.82 µM (inactive). For the same molecule, the GI50 (CCRF-CEM) was > 100 µM (inactive), the GI50 (COLO 205) was > 100 µM (inactive) and the GI50 (DU-145) was > 100 µM (inactive). The GI50 (EKVX) was 28.3 µM (inactive), the GI50 (HCC 2998) was 95.3 µM (inactive) and the GI50 (HCT-116) was > 100 µM (inactive). The GI50 (HCT-15) was over 100 µM, the GI50 (HL-60) was > 100 µM (inactive) and the GI50 (HOP-62) was > 100 µM (inactive). The GI50 (HOP-92) was 11.7 µM (inactive), the GI50 (HT-29) was > 100 µM (inactive) and the GI50 (Hs-578T) was > 100 µM (inactive). The GI50 (IGROV-1) was 44.2 µM (inactive), the GI50 (K562) was 62.1 µM (inactive) and the GI50 (KM12) was > 100 µM (inactive). For the same molecule, the GI50 (LOX IMVI) was > 100 µM (inactive), the GI50 (M14) was > 100 µM (inactive) and the GI50 (MCF7) was > 100 µM (inactive). For the same molecule, the GI50 (MDA-MB-231) was > 100 µM (inactive), the GI50 (MDA-MB-435) was > 100 µM (inactive) and the GI50 (MDA-N) was > 100 µM (inactive). The GI50 (MOLT-4) was > 100 µM (inactive), the GI50 (Malme-3M) was > 100 µM (inactive) and the GI50 (NCI-H226) was > 100 µM (inactive). For the same molecule, the GI50 (NCI-H23) was > 100 µM (inactive), the GI50 (NCI-H460) was > 100 µM (inactive) and the GI50 (NCI-H522) was 10.4 µM (inactive). The GI50 (NCI/ADR-RES) was > 100 µM (inactive), the GI50 (OVCAR-3) was > 100 µM (inactive) and the GI50 (OVCAR-4) was > 100 µM (inactive). For the same molecule, the GI50 (OVCAR-5) was > 100 µM (inactive), the GI50 (OVCAR-8) was > 100 µM (inactive) and the GI50 (PC-3) was > 100 µM (inactive). For the same molecule, the GI50 (RPMI-8226) was > 100 µM (inactive), the GI50 (RXF 393) was > 100 µM (inactive) and the GI50 (SF-268) was > 100 µM (inactive). For the same molecule, the GI50 (SF-295) was > 100 µM (inactive), the GI50 (SF-539) was > 100 µM (inactive) and the GI50 (SK-MEL-28) was > 100 µM (inactive). For the same molecule, the GI50 (SK-MEL-2) was > 100 µM (inactive), the GI50 (SK-MEL-5) was > 100 µM (inactive) and the GI50 (SK-OV-3) was > 100 µM (inactive). For the same molecule, the GI50 (SN12C) was > 100 µM (inactive), the GI50 (SNB-19) was > 100 µM (inactive) and the GI50 (SNB-75) was > 100 µM (inactive). The GI50 (SR) was > 100 µM (inactive), the GI50 (SW-620) was > 100 µM (inactive) and the GI50 (T47D) was > 100 µM (inactive). For the same molecule, the GI50 (TK-10) was > 100 µM (inactive), the GI50 (U-251) was > 100 µM (inactive) and the GI50 (UACC-257) was > 100 µM (inactive). The GI50 (UACC-62) was > 100 µM (inactive) and the GI50 (UO-31) was 32.4 µM (inactive).
With `NC(=O)N/N=C(/CC1C(=O)Oc2ccccc21)c1ccccc1O` (stereo not drawn) the GI50 (786-0) was 33.4 µM (inactive), the GI50 (A498) was 49.3 µM (inactive) and the GI50 (A549) was > 100 µM (inactive). The GI50 (ACHN) was 39.7 µM (inactive), the GI50 (BT-549) was 24.2 µM (inactive) and the GI50 (CAKI-1) was 49 µM (inactive). The GI50 (CCRF-CEM) was 22.4 µM (inactive), the GI50 (COLO 205) was 98.2 µM (inactive) and the GI50 (DU-145) was 50.1 µM (inactive). For the same molecule, the GI50 (EKVX) was 87.5 µM (inactive), the GI50 (HCC 2998) was 35 µM (inactive) and the GI50 (HCT-116) was 29.6 µM (inactive). For the same molecule, the GI50 (HCT-15) was 38.4 µM, the GI50 (HL-60) was 19.6 µM (inactive) and the GI50 (HOP-62) was 29 µM (inactive). The GI50 (HOP-92) was 29.8 µM (inactive), the GI50 (HT-29) was 69 µM (inactive) and the GI50 (Hs-578T) was > 100 µM (inactive). For the same molecule, the GI50 (IGROV-1) was 36.6 µM (inactive), the GI50 (K562) was 30.8 µM (inactive) and the GI50 (KM12) was 31.9 µM (inactive). For the same molecule, the GI50 (LOX IMVI) was 20.4 µM (inactive), the GI50 (M14) was > 100 µM (inactive) and the GI50 (MCF7) was 48.1 µM (inactive). The GI50 (MDA-MB-231) was > 100 µM (inactive), the GI50 (MDA-MB-435) was 43.8 µM (inactive) and the GI50 (MDA-N) was 45.5 µM (inactive). For the same molecule, the GI50 (MOLT-4) was 20.2 µM (inactive), the GI50 (Malme-3M) was > 100 µM (inactive) and the GI50 (NCI-H226) was 24.4 µM (inactive). For the same molecule, the GI50 (NCI-H23) was 31.5 µM (inactive), the GI50 (NCI-H460) was 39.4 µM (inactive) and the GI50 (NCI-H522) was > 100 µM (inactive). The GI50 (NCI/ADR-RES) was 25.9 µM (inactive), the GI50 (OVCAR-3) was 78.2 µM (inactive) and the GI50 (OVCAR-4) was 41.7 µM (inactive). The GI50 (OVCAR-5) was > 100 µM (inactive), the GI50 (OVCAR-8) was 28.6 µM (inactive) and the GI50 (PC-3) was > 100 µM (inactive). For the same molecule, the GI50 (RPMI-8226) was 14.1 µM (inactive), the GI50 (RXF 393) was 29.6 µM (inactive) and the GI50 (SF-268) was > 100 µM (inactive). For the same molecule, the GI50 (SF-295) was 42.5 µM (inactive), the GI50 (SF-539) was 25.6 µM (inactive) and the GI50 (SK-MEL-28) was 48.3 µM (inactive). The GI50 (SK-MEL-2) was > 100 µM (inactive), the GI50 (SK-MEL-5) was 58.6 µM (inactive) and the GI50 (SK-OV-3) was 34.1 µM (inactive). The GI50 (SN12C) was 83.6 µM (inactive), the GI50 (SNB-19) was 60 µM (inactive) and the GI50 (SNB-75) was 41.3 µM (inactive). For the same molecule, the GI50 (SR) was 18.9 µM (inactive), the GI50 (SW-620) was 45.7 µM (inactive) and the GI50 (T47D) was 19.5 µM (inactive). The GI50 (TK-10) was 53.8 µM (inactive), the GI50 (U-251) was 30.1 µM (inactive) and the GI50 (UACC-257) was 44.7 µM (inactive). For the same molecule, the GI50 (UACC-62) was 19.1 µM (inactive) and the GI50 (UO-31) was 41.1 µM (inactive).
